Measurements: publication PMC9181126, “Design, Synthesis, Molecular Docking Analysis and Biological Evaluations of 4-[(Quinolin-4-yl)amino]benzamide Derivatives as Novel Anti-Influenza Virus Agents” (International Journal of Molecular Sciences, 2022)

Key:
[1] = tested on: influenza virus A/WSN/33 (H1N1); assay: microbe, parasite or virus in culture; type: cell-based; conditions: MDCK, 72 h; for inhibition at 12.5 µM / inhibition at 25 µM / inhibition at 50 µM / inhibition at 100 µM: H1N1|WSN, read-out: Antiviral activity in CPE assay; for EC50: read-out: Cytopathic Effect Assay (A/WSN/33, H1N1) EC50
[2] = tested on: influenza virus A/WSN/33 (H1N1); assay: Plaque inhibition assay in MDCK cells; type: cell-based; conditions: for IC50: MDCK cells; for inhibition at 100 µM: concentration 100 µM
[3] = tested on: A/HK/68 (H3N2); assay: Plaque inhibition assay in MDCK cells; type: cell-based; conditions: Influenza A virus
[4] = tested on: MDCK cells; assay: in vitro; type: cell-based, canine; conditions: dog, 72 h
How it was run: (§1)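 Cells were seeded and compound medium added after 48 h, then incubated 72 h at 37 °C, 5% CO2. Viability was measured by MTT (4 h), then solubilization and absorbance at 620 nm after a further 3 h. DMSO-only wells were taken as 100% viable.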

[5] = in vitro; type: cell-based, canine; conditions: dog
How it was run: as §1

[6] = tested on: HEK293T cells; assay: in vitro; type: cell-based; conditions: human, 72 h
How it was run: as §1

[7] = in vitro; type: cell-based; conditions: human
How it was run: as §1

[8] = molecular target: ribonucleoprotein (RNP) of influenza virus (Influenza A virus, UniProt P15659); assay: cell-based; conditions: HEK-293T, read-out: RNP Reconstitution Assay Inhibition Rate; for inhibition at 100 µM: concentration 100 µM
[9] = tested on: influenza B virus; assay: Plaque inhibition assay in MDCK cells; type: cell-based
[10] = tested on: A/PR/8 (H1N1); assay: Plaque inhibition assay in MDCK cells; type: cell-based; conditions: Influenza A virus
[11] = tested on: A/WSN/33, H1N1; set-up: method as in PMID 25333287; conditions: cited from earlier work
[12] = MDCK, read-out: Plaque Inhibition Assay (A/WSN/33, H1N1) Inhibition Rate

Structure (SMILES)	inhibition at 12.5 µM [1] [%]	inhibition at 25 µM [1] [%]	inhibition at 50 µM [1] [%]	inhibition at 100 µM [1] [%]	EC50 [1] [µM]	inhibition at 100 µM [2, 12] [%]	MDCK cells survival rate ([4]; 12.5 µmol·L−1) [%]	MDCK cells survival rate ([4]; 25 µmol·L−1) [%]	MDCK cells survival rate ([4]; 50 µmol·L−1) [%]	MDCK cells survival rate ([4]; 100 µmol·L−1) [%]	CC50 at 72 h [5] [µM]	HEK293T cells survival rate ([6]; 3.125 µmol·L−1) [%]	HEK293T cells survival rate ([6]; 6.25 µmol·L−1) [%]	HEK293T cells survival rate ([6]; 12.5 µmol·L−1) [%]	HEK293T cells survival rate ([6]; 25 µmol·L−1) [%]	HEK293T cells survival rate ([6]; 50 µmol·L−1) [%]	HEK293T cells survival rate ([6]; 100 µmol·L−1) [%]	CC50 at 72 h [7] [µM]	inhibition at 100 µM [8] [%]	melting point [°C]	also measured
COc1ccccc1OCCNC(=O)c1ccc(Nc2ccnc3cc(C(F)(F)F)ccc23)cc1 [Compound G07, N-[2-(2-Methoxyphenoxy)ethyl]-4-{[7-(trifluoromethyl)quinolin-4-yl]amino}benzamide]	61.4 ± 6.86	78.2 ± 8.28	107 ± 2.43	112 ± 4.3	11.4 ± 1.89	95.9	140.55±9.82	115.87±11.06	256.24±17.89	115.75±5.12	> 100	106.60±2.14	97.91±1.23	91.58±3.34	87.01±2.19	90.17±2.90	81.39±7.21	> 100	80.7		IC50 [2]: 0.23 ± 0.15 µM; IC50 [3]: 7.51 ± 1.76 µM; IC50 [9]: 11 ± 1.16 µM; IC50 [10]: 11.4 ± 2.38 µM
COc1ccccc1OCCNC(=O)c1ccc(Nc2ccnc3c(C)cccc23)cc1 [Compound G20, N-[2-(2-Methoxyphenoxy)ethyl]-4-[(8-methylquinolin-4-yl)amino]benzamide]	72 ± 6.36	28.6 ± 1.61	30.9 ± 0.88	31.1 ± 0.49	> 100		45.97±9.1	8.61±0.42	8.88±0.51	8.66±0.17	< 10	96.66±8.01	91.48±3.65	94.07±9.07	87.46±21.36	80.21±1.35	60.29±0.35	> 100		150.2 to 151.7	inhibition at 6 µM ([2]; MDCK, concentration 6 µM, read-out: Plaque Inhibition Assay (A/WSN/33, H1N1) Inhibition Rate): 74.3%; inhibition at 12.5 µM ([8]; concentration 12.5 µM): 6.69%
COc1ccccc1OCCNC(=O)c1ccc(Nc2ccnc3cc(OC(F)(F)F)ccc23)cc1 [Compound G22, N-[2-(2-Methoxyphenoxy)ethyl]-4-{[7-(trifluoromethoxy)quinolin-4-yl]amino}benzamide]	112 ± 6.15	108 ± 8.75	106 ± 5.94	97.4 ± 10.2	< 10	20	95.78±2.47	99.56±3.73	104.22±9.18	118.12±6.49	> 100	117.25±6.52	103.91±6.77	91.65±2.90	89.97±4.08	88.83±5.80	86.07±5.65	> 100	43.9	229.5 to 230.7	
COc1ccccc1OCCNC(=O)c1ccc(Nc2ccnc3cc([N+](=O)[O-])ccc23)cc1 [Compound G23, N-[2-(2-Methoxyphenoxy)ethyl]-4-[(7-nitroquinolin-4-yl)amino]benzamide]	146 ± 3.38	143 ± 6.11	119.8 ± 0.68	119 ± 7.71	< 10	77.9	101.22±6.39	106.22±9.35	100.33±3.53	91.28±3.45	> 100	93.57±3.31	96.34±4.31	95.29±3.05	89.02±3.47	96.62±7.74	88.11±4.02	> 100	56.6	217 to 218.5	
COc1ccccc1OCCNC(=O)c1ccc(Nc2ccnc3ccc(C(F)(F)F)cc23)cc1 [Compound G26, N-[2-(2-Methoxyphenoxy)ethyl]-4-{[6-(trifluoromethyl)quinolin-4-yl]amino}benzamide]	15.7 ± 1.06	16.8 ± 2.11	36.8 ± 1.79	49.7 ± 6.09	> 100	< 10	103.03±1.26	105.52±6.56	122.08±7.85	133.91±11.97	> 100	104.54±2.55	83.92±2.40	78.70±2.98	74.64±5.24	72.10±1.56	70.01±9.07	> 100	22.6	225.3 to 227.3	
NC12CC3CC(CC(C3)C1)C2 [amantadine, reference compound]																					IC50 [2]: > 100 µM; IC50 [3]: 2.22 ± 0.57 µM; IC50 [9]: > 100 µM; IC50 [10]: 64.2 ± 7.21 µM
CCN(CC)Cc1cc(Nc2ccnc3cc(Cl)ccc23)ccc1O [amodiaquine]																					EC50 [11]: 6.3 µM
